Experiments:
mutant LRRK2 (G2019S) = molecular target: T1, mutant LRRK2 (G2019S) (Homo sapiens, UniProt Q5S007, G2019S); test: Inhibitory activity against LRRK2: competition binding to ligand-affinity beads, DNA-tagged kinase quantitated by qPCR; settings: 100 nM compound; % of ctrl; read-out: Remaining kinase activity(%) at 100 nM LRRK2(G2019Smutant)
T1 construct: DNA tag for qPCR detection (not a peptide; the protein part that carries it is not described); made in house; host or cells: HEK 293 cells (the same paragraph also describes T7 phage grown in E. coli BL21)
Method in brief: (§1)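 Human LRRK2 H970–E2527, wild type or G2019S, was expressed as DNA-tagged kinase (T7 phage in E. coli or HEK293) and competed for 1 h against a biotinylated ligand on streptavidin beads. Bound kinase was eluted with 0.5 µM free ligand and quantified by qPCR. Values are % of control at 100 nM (both forms) and at 10 and 50 nM (wild type).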

wild-type LRRK2 = molecular target: T2, wild-type LRRK2 (Homo sapiens, UniProt Q5S007); test: as above; settings: % of ctrl; for remaining binding at 0.1 µM: 100 nM compound, read-out: Remaining kinase activity(%) at 100 nM LRRK2(WT); for remaining binding at 0.01 µM: 10 nM compound, read-out: LRRK2(WT) Remaining kinase activity(%) at 10 nM; for remaining binding at 0.05 µM: 50 nM compound, read-out: LRRK2(WT) Remaining kinase activity(%) at 50 nM
T2 construct: DNA tag for qPCR detection (not a peptide; the protein part that carries it is not described); made in house; host or cells: HEK 293 cells (the same paragraph also describes T7 phage grown in E. coli BL21)
Method in brief: as §1

T1 sequence (Q5S007 970-2527 G2019S): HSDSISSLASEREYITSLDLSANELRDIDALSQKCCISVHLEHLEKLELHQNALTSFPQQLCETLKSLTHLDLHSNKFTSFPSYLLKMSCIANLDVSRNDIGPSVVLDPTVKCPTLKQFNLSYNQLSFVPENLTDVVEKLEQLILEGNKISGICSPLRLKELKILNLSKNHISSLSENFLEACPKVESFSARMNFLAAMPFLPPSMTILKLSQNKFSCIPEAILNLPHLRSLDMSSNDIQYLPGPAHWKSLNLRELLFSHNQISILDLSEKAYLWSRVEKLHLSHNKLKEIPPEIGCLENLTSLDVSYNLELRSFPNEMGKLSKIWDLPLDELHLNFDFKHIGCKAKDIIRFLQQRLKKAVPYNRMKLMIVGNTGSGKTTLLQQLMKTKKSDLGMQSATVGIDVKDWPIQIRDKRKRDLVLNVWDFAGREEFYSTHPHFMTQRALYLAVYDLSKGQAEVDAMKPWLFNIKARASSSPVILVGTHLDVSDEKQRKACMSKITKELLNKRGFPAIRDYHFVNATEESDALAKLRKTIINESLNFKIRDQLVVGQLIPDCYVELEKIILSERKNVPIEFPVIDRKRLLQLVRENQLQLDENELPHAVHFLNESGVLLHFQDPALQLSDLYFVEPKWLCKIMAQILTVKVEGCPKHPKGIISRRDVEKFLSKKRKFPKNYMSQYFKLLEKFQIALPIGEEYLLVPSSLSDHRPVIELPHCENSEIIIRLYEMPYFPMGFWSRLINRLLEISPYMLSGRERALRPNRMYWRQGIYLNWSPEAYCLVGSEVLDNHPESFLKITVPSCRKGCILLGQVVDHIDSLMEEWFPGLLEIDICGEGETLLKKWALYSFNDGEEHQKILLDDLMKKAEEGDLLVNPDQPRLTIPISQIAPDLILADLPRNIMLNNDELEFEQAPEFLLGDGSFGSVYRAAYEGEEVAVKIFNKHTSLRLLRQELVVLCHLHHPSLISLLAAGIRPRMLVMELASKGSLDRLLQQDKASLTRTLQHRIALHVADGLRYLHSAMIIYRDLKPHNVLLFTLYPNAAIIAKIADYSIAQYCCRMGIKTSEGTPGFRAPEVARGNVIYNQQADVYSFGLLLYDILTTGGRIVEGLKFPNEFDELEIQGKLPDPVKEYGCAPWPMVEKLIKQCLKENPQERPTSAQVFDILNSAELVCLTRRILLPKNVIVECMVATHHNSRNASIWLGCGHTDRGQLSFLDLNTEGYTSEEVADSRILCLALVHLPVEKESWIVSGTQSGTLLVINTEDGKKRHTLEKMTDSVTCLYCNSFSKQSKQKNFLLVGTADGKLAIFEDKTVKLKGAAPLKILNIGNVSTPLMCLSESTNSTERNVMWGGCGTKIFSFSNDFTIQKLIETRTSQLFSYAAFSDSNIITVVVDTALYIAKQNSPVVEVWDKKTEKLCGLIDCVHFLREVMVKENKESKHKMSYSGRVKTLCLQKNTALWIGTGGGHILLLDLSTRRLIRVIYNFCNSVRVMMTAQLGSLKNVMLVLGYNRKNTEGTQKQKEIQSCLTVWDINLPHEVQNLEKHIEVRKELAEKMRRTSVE
T2 sequence (Q5S007 970-2527): as the sequence (Q5S007 970-2527 G2019S) above, with S1050G counted along it

Row | Structure (SMILES) | remaining binding at 0.1 µM (mutant LRRK2 (G2019S)) [%] | remaining binding at 0.1 µM (wild-type LRRK2) [%] | remaining binding at 0.01 µM (wild-type LRRK2) [%] | remaining binding at 0.05 µM (wild-type LRRK2) [%]
1 | COc1cc(C(=O)N2CCOCC2)ccc1Nc1ncc(Cl)c(-c2ccccc2)n1 [Comparative Compound 1, (4-((5-chloro-4-phenylpyrimidin-2-yl)amino)-3-methoxyphenyl)(morpholino)methanone, reference compound] | ≥ 50 | ≥ 50 | – | –
2 | COc1cc(C(=O)N2CCOCC2)ccc1Nc1ncc(Cl)c(-c2cccnc2)n1 [Comparative Compound 2, (4-((5-chloro-4-(pyridin-3-yl)pyrimidin-2-yl)amino)-3-methoxyphenyl) (morpholino)methanone, reference compound] | ≥ 50 | ≥ 50 | – | –
3 | COc1cc(C(=O)N2CCOCC2)ccc1Nc1ncc(Cl)c(-c2cccc([N+](=O)[O-])c2)n1 [Comparative Compound 3, (4-((5-chloro-4-(3-nitrophenyl)pyrimidin-2-yl)amino) -3-methoxyphenyl)(morpholino)methanone, reference compound] | ≥ 50 | ≥ 50 | – | –
4 | COc1cc(C(=O)N2CCC(N3CCOCC3)CC2)ccc1Nc1ncc(Cl)c(-c2cnn(C)c2)n1 [Compound 2, (4-((5-chloro-4-(1-methyl-1H-pyrazol-4-yl)pyrimidin-2-yl)amino)-3-methoxyphenyl) (4-morpholinopiperidin-1-yl)methanone] | < 10 | < 10 | – | –
5 | COc1cc(C(=O)N2CCOCC2)ccc1Nc1ncc(Cl)c(-c2cnn(C(C)CC#N)c2)n1 (stereo not drawn) [Compound 7, 3-(4-(5-chloro-2-((2-methoxy-4-(morpholine-4-carbonyl)phenyl)amino)pyrimidin-4-yl)-1H-pyrazol-1-yl)butanenitrile] | < 10 | < 10 | – | –
6 | COc1cc(C(=O)N2CCOCC2)ccc1Nc1ncc(Cl)c(-c2cnn(S(C)(=O)=O)c2)n1 [Compound 10, (4-((5-chloro-4-(1-(methylsulfonyl)-1H-pyrazol-4-yl)pyrimidin-2-yl)amino)-3-methoxyphenyl)(morpholino)methanone] | < 10 | < 30 | – | –
7 | COc1cc(C(=O)N2CCOCC2)ccc1Nc1ncc(Cl)c(-c2cnn(C(F)F)c2)n1 [Compound 15, (4-((5-chloro-4-(1-(difluoromethyl)-1H-pyrazol-4-yl)pyrimidin-2-yl)amino)-3-methoxyphenyl)(morpholino)methanone] | < 30 | < 50 | – | –
8 | COc1ccc(Cn2cc(-c3nc(Nc4ccc(C(=O)N5CCOCC5)cc4OC)ncc3Cl)cn2)cc1 [Compound 17, (4-((5-chloro-4-(1-(4-methoxybenzyl)-1H-pyrazol-4-yl)pyrimidin-2-yl)amino)-3-methoxyphenyl)(morpholino)methanone] | < 50 | < 30 | – | –
9 | COc1cc(C(=O)N2CCOCC2)ccc1Nc1ncc(Cl)c(-c2cn[nH]c2)n1 [Compound 18, (4-((5-chloro-4-(1H-pyrazol-4-yl)pyrimidin-2-yl)amino)-3-methoxyphenyl)(morpholino)methanone] | < 30 | < 30 | – | –
10 | COc1cc(C(=O)N2CCC(N3CCN(C)CC3)CC2)ccc1Nc1ncc(Cl)c(-c2cnn(C)c2)n1 [Compound 19, (4-((5-chloro-4-(1-methyl-1H-pyrazol-4-yl)pyrimidin-2-yl)amino)-3-methoxyphenyl)(4-(4-methylpiperazin-1-yl)piperidin-1-yl)methanone] | < 10 | < 10 | – | –
11 | COc1cc(C(=O)N2CCOCC2)ccc1Nc1ncc(Cl)c(-c2cnn(C3CCOCC3)c2)n1 [Compound 20, (4-((5-chloro-4-(1-(tetrahydro-2H-pyran-4-yl)-1H-pyrazol-4-yl)pyrimidin-2-yl)amino)-3-methoxyphenyl)(morpholino)methanone] | < 10 | < 10 | – | –
12 | COc1cc(C(=O)N2CCOCC2)ccc1Nc1ncc(Cl)c(-c2cnn(C(C)(C)CC#N)c2)n1 [Compound 27, 3-(4-(5-chloro-2-((2-methoxy-4-(morpholine-4-carbonyl)phenyl)amino)pyrimidin-4-yl)-1H-pyrazol-1-yl)-3-methylbutanenitrile] | < 10 | < 10 | – | –
13 | COc1cc(C(=O)Nc2ccc3c(c2)CCN3C(C)=O)ccc1Nc1ncc(Cl)c(-c2cnn(C(C)C)c2)n1 [Compound 212, N-(1-acetylindolin-5-yl)-4-((5-chloro-4-(1-isopropyl-1H-pyrazol-4-yl)pyrimidin-2-yl)amino)-3-methoxybenzamide] | – | – | ≥ 50 | < 50
14 | COc1cc(C(=O)N2CCC(N3CCCC3)CC2)ccc1Nc1ncc(Cl)c(-c2cnn(C(C)C)c2)n1 [Compound 216, (4-((5-chloro-4-(1-isopropyl-1H-pyrazol-4-yl)pyrimidin-2-yl)amino)-3-methoxyphenyl)(4-(pyrrolidin-1-yl)piperidin-1-yl)methanone] | – | – | < 50 | < 10
15 | COc1cc(C(=O)N2CCC(N3CCCCC3)CC2)ccc1Nc1ncc(Cl)c(-c2cnn(C(C)C)c2)n1 [Compound 217, [1,4′-bipiperidin]-1′-yl(4-((5-chloro-4-(1-isopropyl-1H-pyrazol-4-yl)pyrimidin-2-yl)amino)-3-methoxyphenyl)methanone] | – | – | < 30 | < 10

Results, then the compound that gave them:

Row | remaining binding at 0.1 µM (mutant LRRK2 (G2019S)) [%] | remaining binding at 0.1 µM (wild-type LRRK2) [%] | remaining binding at 0.01 µM (wild-type LRRK2) [%] | remaining binding at 0.05 µM (wild-type LRRK2) [%] | Structure (SMILES)
16 | < 30 | < 30 | – | – | COc1cc(C(=O)N2CCOCC2)ccc1Nc1ncc(Cl)c(-c2cnn(C)c2)n1 [Compound 1, (4-((5-chloro-4-(1-methyl-1H-pyrazol-4-yl)pyrimidin-2-yl)amino)-3-methoxyphenyl)(morpholino)methanone]
17 | < 30 | < 30 | – | – | COc1cc(C(=O)N2CCOCC2)ccc1Nc1ncc(Cl)c(-c2cnn(CCO)c2)n1 [Compound 4, (4-((5-chloro-4-(1-(2-hydroxyethyl)-1H-pyrazol-4-yl)pyrimidin-2-yl)amino)-3-methoxyphenyl)(morpholino)methanone]
18 | < 10 | < 10 | – | – | COc1cc(C(=O)N2CCOCC2)ccc1Nc1ncc(Cl)c(-c2cnn(CCC#N)c2)n1 [Compound 5, 3-(4-(5-chloro-2-((2-methoxy-4-(morpholine-4-carbonyl)phenyl)amino)pyrimidin-4-yl)-1H-pyrazol-1-yl)propanenitrile]
19 | < 30 | < 50 | – | – | COc1cc(C(=O)N2CCOCC2)ccc1Nc1ncc(Cl)c(-c2cnn(CC#N)c2)n1 [Compound 6, 2-(4-(5-chloro-2-((2-methoxy-4-(morpholine-4-carbonyl)phenyl)amino)pyrimidin-4-yl)-1H-pyrazol-1-yl)acetonitrile]
20 | < 10 | < 30 | – | – | COCn1cc(-c2nc(Nc3ccc(C(=O)N4CCOCC4)cc3OC)ncc2Cl)cn1 [Compound 16, (4-((5-chloro-4-(1-(methoxymethyl)-1H-pyrazol-4-yl)pyrimidin-2-yl)amino)-3-methoxyphenyl)(morpholino)methanone]
21 | < 30 | < 30 | – | – | COCCN(C)C(=O)c1ccc(Nc2ncc(Cl)c(-c3cnn(C)c3)n2)c(OC)c1 [Compound 21, 4-((5-chloro-4-(1-methyl-1H-pyrazol-4-yl)pyrimidin-2-yl)amino)-3-methoxy-N-(2-methoxyethyl)-N-methylbenzamide]
22 | < 50 | < 30 | – | – | COc1cc(C(=O)N2CCCC2)ccc1Nc1ncc(Cl)c(-c2cnn(C)c2)n1 [Compound 22, (4-((5-chloro-4-(1-methyl-1H-pyrazol-4-yl)pyrimidin-2-yl)amino)-3-methoxyphenyl)(pyrrolidin-1-yl)methanone]
23 | < 50 | < 50 | – | – | CCN(CCOC)C(=O)c1ccc(Nc2ncc(Cl)c(-c3cnn(C)c3)n2)c(OC)c1 [Compound 23, 4-((5-chloro-4-(1-methyl-1H-pyrazol-4-yl)pyrimidin-2-yl)amino)-N-ethyl-3-methoxy-N-(2-methoxyethyl)benzamide]
24 | < 50 | < 30 | – | – | COc1cc(C(=O)NC(C)(C)CO)ccc1Nc1ncc(Cl)c(-c2cnn(C)c2)n1 [Compound 24, 4-((5-chloro-4-(1-methyl-1H-pyrazol-4-yl)pyrimidin-2-yl)amino)-N-(1-hydroxy-2-methylpropan-2-yl)-3-methoxybenzamide]
25 | < 50 | < 30 | – | – | COc1cc(C(=O)NC(C)(C)C)ccc1Nc1ncc(Cl)c(-c2cnn(C)c2)n1 [Compound 25, N-(tert-butyl)-4-((5-chloro-4-(1-methyl-1H-pyrazol-4-yl)pyrimidin-2-yl)amino)-3-methoxybenzamide]
26 | < 50 | < 50 | – | – | COc1cc(C(=O)NCC(C)(C)O)ccc1Nc1ncc(Cl)c(-c2cnn(C)c2)n1 [Compound 26, 4-((5-chloro-4-(1-methyl-1H-pyrazol-4-yl)pyrimidin-2-yl)amino)-N-(2-hydroxy-2-methylpropyl)-3-methoxybenzamide]
27 | < 30 | < 30 | – | – | COCCn1cc(-c2nc(Nc3ccc(C(=O)N4CCOCC4)cc3OC)ncc2Cl)cn1 [Compound 28, (4-((5-chloro-4-(1-(2-methoxyethyl)-1H-pyrazol-4-yl)pyrimidin-2-yl)amino)-3-methoxyphenyl)(morpholino)methanone]

Source: patent publication US20240254103A9, “NOVEL PYRIMIDINE DERIVATIVE, AND COMPOSITION FOR PREVENTING OR TREATING NEURODEGENERATIVE DISEASES AND CANCER, COMPRISING SAME” (WHAN IN PHARMACEUTICAL CO., LTD., priority 2020, published 2024)
